Measurements reported in patent US20210138012A1, “COMPOSITION FOR PREVENTING, AMELIORATING, OR TREATING RESPIRATORY DISEASE COMPRISING SIRAITIA GROSVENORII EXTRACT AS EFFECTIVE COMPONENT” (KOREA INSTITUTE OF ORIENTAL MEDICINE, priority 2018, published 2021).

Assays:
IL-4 = IL-4 production in BALF (ELISA), animal asthma model; format: in vivo, Balb/c mouse; conditions: OVA-10 mg/kg
Protocol: (§1) Test was carried out by using an animal model which has been induced to have bronchial asthma by ovalbumin (OVA). As for the test animal, a 7-week old male Balb/c mouse was obtained from Jackson Laboratory (Bar Harbor, Me., USA), and used for the test after acclimation for 1 week. […] On day 3 and day 10 after intraperitoneally administering the first OVA, 2 mg of OVA were administered to the mouse via intratracheal injection. Then, from day 21 onwards for 4 weeks, the mouse was allowed to inhale OVA for 30 minutes by using a ultrasonic sprayer (NE-U12, Omron Co., Tokyo, Japan) (week 1 to week 3; exposed to 1% OVA, week 4; exposed to 2% OVA). Forty-eight hours after the last exposure to OVA, blood was taken from the anesthetized mouse, which was then subjected to autopsy to have observation of a pathological change. […]
(§2) Production amount of interleukins (IL-4, IL-5, and IL-13) in BALF separated from each test animal was measured by a commercially available kit for enzyme-linked immunosorbent assay (ELISA) (R&D System, USA). Analysis of each cytokine was carried out according to the experimental method provided by the manufacturer, and the absorbance at 450 nm was measured using an ELISA reader.

IL-5 = IL-5 production in BALF (ELISA), animal asthma model; format: in vivo, Balb/c mouse; conditions: OVA-10 mg/kg
Protocol: as §1, §2

IL-13 = IL-13 production in BALF (ELISA), animal asthma model; format: in vivo, Balb/c mouse; conditions: OVA-10 mg/kg
Protocol: as §1, §2

RANTES = assay: Inhibition of RANTES secretion in TNF-α-treated BEAS-2B cells (ELISA); format: cell-based; conditions: Homo sapiens, 10 ng/ml TNF-α, 24 hours, read-out: Inhibition rate (%) of RANTES secretion
Protocol: (§3) BEAS-2B cells (ATCC, USA), which are human bronchial epithelial cells, were cultured in Dulbecco's modified eagle medium (DMEM) added with fetal bovine serum (FBS) and penicillin-streptomycin (PS). BEAS-2B cells were cultured again for 18 hours in a 96-well plate (5×10^4 cells/well) containing DMEM 10% medium. The medium was subsequently removed and replaced with serum-free DMEM.
After that, to measure the secretion amount of RANTES, the cells were simultaneously treated with a test sample and TNF-α (10 ng/ml) and cultured for 24 hours. Secretion amount of RANTES present in cell supernatant was measured by using ELISA kit (R&D systems, USA) according to the manufacturer's protocol. As a positive control group, 0.1 μM dexamethasone was used.

TARC = assay: Inhibition of TARC secretion in TNF-α + IFN-γ + IL-4-treated BEAS-2B cells (ELISA); format: cell-based; conditions: Homo sapiens, TNF-α + IFN-γ + IL-4, 24 hours, read-out: Inhibition rate (%) of TARC secretion
Protocol: as §3
Meanwhile, to measure the secretion amount of TARC, BEAS-2B cells were simultaneously treated with TNF-α (50 ng/ml), IFN-γ (10 ng/ml), and IL-4 (50 ng/ml), and, after culture for 24 hours, the measurement was made by using ELISA kit (R&D systems, USA).

[1] = system: BEAS-2B pulmonary bronchial cells; assay: Cytotoxicity in BEAS-2B pulmonary bronchial cells using CCK-8; format: cell-based, human; conditions: 0.1 μM
Protocol: as §3

SMILES	IL-4 (IL-4) [pg/mL]	IL-5 (IL-5) [pg/mL]	IL-13 (IL-13) [pg/mL]	inhibition at 0.1 µM (RANTES) [%]	inhibition at 0.1 µM (TARC) [%]	Cell viability (%) [1] [%]
CC(C)(O)c1ccccc1CC[C@@H](SCC1(CC(=O)O)CC1)c1cccc(/C=C/c2ccc3ccc(Cl)cc3n2)c1 [Montelukast, montelukast]	60.37 ± 12.05	27.91 ± 8.61	89.58 ± 9.46			
C[C@@H]1C[C@H]2[C@@H]3CCC4=CC(=O)C=C[C@]4(C)[C@@]3(F)[C@@H](O)C[C@]2(C)[C@@]1(O)C(=O)CO [positive control group, dexamethasone]				97.1 ± 12.9	28.4 ± 8.77	99.34 ± 0.14
